According to patent US20150232856A1, “TELOMERASE INHIBITORS FOR USE IN THERAPY” (AGENCY FOR SCIENCE, TECHNOLOGY AND RESEARCH, priority 2012, published 2015):

Tested on: A2780cp cells
Test: Colony formation assay
Type: cell-based, human
Conditions: significantly rescued by ectopic expression of p65 (FIGS. 1G & H)
Procedure: F. Colony formation assay: A2780cp cells were infected with p65 expressing or GFP (Cntrl) virus followed by plating 1000 cells per condition. The cells were then treated with 2 μM MST312 or DMSO control for 2 weeks followed by staining with crystal violet after 12 days. Number of colonies was counted from duplicate plates.

## sh-hTERT: shRNA directed against hTERT, SEQ ID NO: 48 (CATTTCATCAGCAAGTTTGGA)
  colony forming ability of cells: reduction in colony forming ability
